From US10653704B2, “Inhalable formulation” (Teva Branded Pharmaceutical Products R&D, Inc., priority 2014, dated 2020)

How the values were obtained:
Format in all cases: physicochemical
[1] = Particle size distribution by Malvern, conditioning studies untreated versus treated
[2] = Amorphous content after conditioning in HFA134a
Description: Heating is performed at a temperature of 30-50° C., more preferably at a temperature of 35-45° C., and most preferably at a temperature of 38-42° C. The heating step, in the presence of the propellant, is a conditioning step for the API, in order to reduce the amorphous content of the API, without affecting the PSD. Amorphous content may be determined by solution microcalorimetry. Fluticasone propionate was conditioned in a drug-addition vessel. A 5% concentration of fluticasone propionate in HFA134a was treated at 40° C. for 48-72 h with a gentle rocking motion. HFA134a was vented and the remaining material was assessed in regard to its amorphous content.

[3] = Scanning electron microscope images pre- and post-conditioning; settings: post-conditioning versus pre-conditioning, Experiments 1 and 2
Description: FIGS. 1 and 2 show scanning electron microscope images of fluticasone propionate, pre-conditioning (the first image in each Figure) and post-conditioning (the second image in each Figure). FIGS. 1 and 2 are taken from Experiments 1 and 2 in Table 1 and show scanning electron microscopic images of fluticasone propionate, pre-conditioning (the first image in each Figure) and post-conditioning (the second image in each Figure).

[4] = Particle size distribution by Malvern, conditioning studies untreated versus treated; remark: listed apart in the source
Description: Fluticasone propionate was conditioned in a drug-addition vessel. A 5% concentration of fluticasone propionate in HFA134a was treated at 40° C. for 48-72 h with a gentle rocking motion. HFA134a was vented and the remaining material was assessed in regard to its amorphous content.

[5] = Experiment 1, 5% in HFA134a, 40° C. for 48-72 h (with agitation)
[6] = Experiment 1, 5% in HFA134a, 40° C. for 72 h (with agitation)
[7] = Experiment 1, Control (untreated)
[8] = Experiment 2, 5% in HFA134a, 40° C. for 48-72 h (with agitation)
[9] = Experiment 2, Control (untreated)

- Particle size distribution by Malvern D50 [1, 5]: 1.5 μm
- Particle size distribution by Malvern D50 [1, 6]: 1.4 μm
- Particle size distribution by Malvern D10 [1, 7]: 0.6 μm
- Particle size distribution by Malvern D50 [1, 7]: 1.5 μm
- Particle size distribution by Malvern D90 [1, 7]: 3.2 μm
- Particle size distribution by Malvern D90 [1, 8]: 4.7 μm
- Particle size distribution by Malvern D10 [1, 9]: 0.6 μm
- Particle size distribution by Malvern D50 [1, 9]: 1.7 μm
- Particle size distribution by Malvern D90 [1, 9]: 5.0 μm
- Amorphous content [2, 5]: 2.3%
- Amorphous content [2, 6]: 1.1%
- Amorphous content [2, 7]: 7.2%
- Amorphous content [2, 8]: 1.1%
- Amorphous content [2, 9]: 2.3%
- Crystallinity by SEM images [3]: increased crystallinity
- Particle size distribution by Malvern D10 [4, 5]: 0.6 μm
- Particle size distribution by Malvern D90 [4, 5]: 3.2 μm
- Particle size distribution by Malvern D10 [4, 6]: 0.6 μm
- Particle size distribution by Malvern D90 [4, 6]: 2.9 μm
- Particle size distribution by Malvern D10 [4, 8]: 0.7 μm
- Particle size distribution by Malvern D50 [4, 8]: 2.0 μm
SMILES: CCC(=O)O[C@]1(C(=O)SCF)[C@H](C)C[C@H]2[C@@H]3C[C@H](F)C4=CC(=O)C=C[C@]4(C)[C@@]3(F)[C@@H](O)C[C@@]21C [fluticasone propionate]
